These results are taken from publication PMC9572621, “Fe(III) and Cu(II) Complexes of Chlorogenic Acid: Spectroscopic, Thermal, Anti-/Pro-Oxidant, and Cytotoxic Studies” (Materials, 2022).

≈ marks a conversion by molar mass, not a printed value.

On the set-up of series [1]: method as in PMID 29401704. To be noted: compound 5 μM; cited from earlier work.
On the set-up of series [2]: method as in PMID 15246878. To be noted: read-out: IC50, inhibition of the superoxide-driven reduction of NBT by 50%; flavonoid:metal ion ratio 1:1 for complexes; cited from earlier work.
For series [3] the following is noted: radical assay not named at the place (ABTS•+/DPPH• scavenging discussed); read-out: EC50 (antioxidant); cited from earlier work. (In general: The DPPH test is a chemical assay of radical scavenging.)
For series [4], the system named is Stenotrophomonas maltophilia. Also noted: method as in doi:10.15199/62.2017.11.9, PMID 25209896. To be noted: cited from earlier work.
The conditions of series [5]: cited from earlier work.
A further series is described as follows: MTS cell viability assay. The settings on record: human, HaCaT keratinocyte cells, 1000 nM. Format: cell-based.
For a further series, the system named is Staphylococcus aureus. Also noted: method as in doi:10.15199/62.2017.11.9, PMID 26528244, PMID 24228999. To be noted: cited from earlier work.
The test system of a further series is Candida albicans. Also noted: method as in doi:10.15199/62.2017.11.9, PMID 25209896. The settings on record: cited from earlier work.

On to `O=C(C=Cc1ccc(O)c(O)c1)OC1CC(O)(C(=O)[O-])CC(O)C1O.[Li+]` (stereo not shown) [CQA/Li], for which the FRAP activity in series [1] was 106.92 µM Fe^2+.

The term IC50 denotes the concentration at which inhibition is half-maximal. On to `C[C@@H]1O[C@@H](OC[C@H]2O[C@@H](Oc3c(-c4ccc(O)c(O)c4)oc4cc(O)cc(O)c4c3=O)[C@H](O)[C@@H](O)[C@@H]2O)[C@H](O)[C@H](O)[C@H]1O` [rutin], for which the IC50 in series [2] was 9 µM.

The term EC50 denotes the concentration at which the effect is half-maximal. For `O=C1O[C@H]([C@@H](O)CO)C(O)=C1O` [L-ascorbic acid], in series [3], the EC50 was 10.3 ± 0.98 µM.

A word on the viability: it is a read-out of living cells in per cent, often relative to untreated cells. As usually defined, the MIC is the least concentration at which growth counts as inhibited. As to `O=C(/C=C/c1ccc(O)c(O)c1)O[C@@H]1C[C@](O)(C(=O)O)C[C@@H](O)[C@H]1O` [5-CQA, 5-caffeoylquinic acid], the “activity against Stenotrophomonas maltophilia” value in series [4] is “shows activity”. For the same molecule, in series [5], the “pKa1 (COOH)” value is reported as 3.35, the pKa2 is 8.30 and the “pKa3 (OH in the meta position)” value was 12.06. Moreover, in the series “MTS cell viability assay”, the viability at 24 h, 1 µM amounted to 101 ± 4.5%. Moreover, in the series with Staphylococcus aureus, the MIC was 500 mg/L (≈ 1410 µM). Further, the MIC with Candida albicans was 80 mg/L (≈ 226 µM).
